pIC50: −log10 of the molar value.
What was measured:
[1] = target: T1, Proteinase-activated receptor 1 (Homo sapiens, UniProt P25116); assay: Inhibitory concentration against potent thrombin receptor-1 (PAR-1) on human platelets; Inactive
T1 sequence (P25116 whole entry): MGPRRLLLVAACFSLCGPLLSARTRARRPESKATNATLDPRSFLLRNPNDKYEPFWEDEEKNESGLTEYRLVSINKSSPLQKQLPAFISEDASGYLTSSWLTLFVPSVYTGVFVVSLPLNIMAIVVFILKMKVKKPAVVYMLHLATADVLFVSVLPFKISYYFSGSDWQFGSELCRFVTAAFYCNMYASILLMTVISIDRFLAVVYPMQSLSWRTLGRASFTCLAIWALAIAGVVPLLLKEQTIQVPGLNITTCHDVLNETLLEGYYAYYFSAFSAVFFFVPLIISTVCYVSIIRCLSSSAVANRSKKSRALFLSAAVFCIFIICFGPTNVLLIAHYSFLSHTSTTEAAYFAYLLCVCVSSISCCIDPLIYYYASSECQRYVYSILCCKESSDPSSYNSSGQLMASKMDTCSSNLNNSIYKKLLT

[2] = organism: Homo sapiens; assay: Inhibition of human platelet aggregation induced by high affinity thrombin receptor agonist peptide( ha-TRAP); format: functional
[3] = organism: Homo sapiens; assay: Inhibition of human platelet aggregation induced by thrombin; format: functional
[4] = target: T1, Proteinase-activated receptor 1; assay: Inhibitory concentration against potent thrombin receptor-1 (PAR-1) on human platelets

Row | Structure (SMILES) | IC50 [1] | pIC50 [4] | also measured
1 | Cc1ccc(C(=O)Cn2c(=O)n(Cc3ccccc3)c3ccccc32)cc1 | Not Active | – | –
2 | O=C(Cn1c(=O)n(Cc2ccccc2)c2ccccc21)c1ccc(Br)cc1 | Not Active | – | –
3 | O=C(Cn1c(=O)n(Cc2ccccc2)c2ccccc21)c1ccc(F)cc1 | Not Active | – | –
4 | Cc1cc(C(=O)Cn2c(=O)n(Cc3ccccc3)c3ccccc32)ccc1Cl | Not Active | – | –
5 | CC(C)(C)c1cc(C(=O)Cn2c(N)nc3ccccc32)cc(C(C)(C)C)c1O | – | 5.82 | –
6 | COc1ccc(OC)c(C(=O)Cn2c(=O)n(Cc3ccccc3)c3ccccc32)c1 | Not Active | – | –
7 | CC(C)(C)c1cc(C(=O)Cn2c(=N)n(CCN3CCOCC3)c3ccccc32)cc(C(C)(C)C)c1O | – | 7.01 | pIC50 [2]: 5.70; pIC50 [3]: < 5.00
8 | Cc1ccc(C(=O)Cn2c(=O)n(Cc3ccccc3)c3ccccc32)c(C)c1 | Not Active | – | –
9 | O=C(Cn1c(=O)n(Cc2ccccc2)c2ccccc21)c1ccc(Cl)cc1Cl | Not Active | – | –
10 | CCC(=O)c1cc(C(C)(C)C)c(O)c(C(C)(C)C)c1 | Not Active | – | –
11 | CC(C)(C)c1cc(C(=O)Cn2c(=N)n(CCN3CCCCC3)c3ccccc32)cc(C(C)(C)C)c1O | – | 5.54 | –
12 | N#Cc1ccc(C(=O)Cn2c(=O)n(Cc3ccccc3)c3ccccc32)cc1 | Not Active | – | –
13 | O=C(Cn1c(=O)n(Cc2ccccc2)c2ccccc21)c1ccc(O)c(O)c1 | Not Active | – | –

The next lines start with results.

Row | IC50 [1] | pIC50 [4] | Structure (SMILES) | also measured
14 | Not Active | – | Cn1c(=O)n(CC(=O)c2cc(C(C)(C)C)c(O)c(C(C)(C)C)c2)c2ccccc21 | –
15 | – | 7.48 | Cc1ccc(Cn2c(=N)n(CC(=O)c3cc(C(C)(C)C)c(O)c(C(C)(C)C)c3)c3ccccc32)cc1 | pIC50 [2]: 6.24; pIC50 [3]: 5.82
16 | – | 6.13 | CC(C)(C)c1ccc(Cn2c(=N)n(CC(=O)c3cc(C(C)(C)C)c(O)c(C(C)(C)C)c3)c3ccccc32)cc1 | –
17 | – | 6.02 | CCCCCCCn1c(=N)n(CC(=O)c2cc(C(C)(C)C)c(O)c(C(C)(C)C)c2)c2ccccc21 | –
18 | – | 5.88 | CC(C)(C)c1cc(C(=O)Cn2c(=N)n(Cc3ccc(Cl)c(Cl)c3)c3ccccc32)cc(C(C)(C)C)c1O | –
19 | – | 6.05 | Cn1c(=N)n(CC(=O)c2cc(C(C)(C)C)c(O)c(C(C)(C)C)c2)c2ccccc21 | –
20 | – | 6.44 | CCCCn1c(=N)n(CC(=O)c2cc(C(C)(C)C)c(O)c(C(C)(C)C)c2)c2ccccc21 | pIC50 [2]: 6.08; pIC50 [3]: 5.00
21 | – | 7.19 | CC(C)(C)c1cc(C(=O)Cn2c(=N)n(Cc3ccccc3)c3ccccc32)cc(C(C)(C)C)c1O | pIC50 [2]: 6.58; pIC50 [3]: 6.22

From ChEMBL document CHEMBL1133830, “Potent, low molecular weight thrombin receptor antagonists” (Bioorg Med Chem Lett, 2001)
